System: CAE9577
Experiment: Na current measurement in CAE9577 expressed oocytes
Type: cell-based, human

NC1=N[C@H](O)[C@H]2[C@H]3O[C@]4(O)O[C@@H]([C@@H](O)[C@@]2(N1)[C@@H]4O)[C@]3(O)CO [TTX, Tetrodotoxin] was tested, and the “inhibition of the inward Na current” value was “partially inhibited”.
